{
  "source": "patent US20040248821A1",
  "about": "“Composition for the treatment of lupus” (priority 2001, published 2004)",
  "key": {"[1]": {"test_system": "patients with Lupus (SLE)", "experiment": "Treatment of human Lupus patients with the inventive composition (case reports)", "assay_type": "in vivo", "settings": "flavonoid replacing Quercetin in the inventive formula; limited tests"}, "[2]": {"test_system": "osteoarthritis or Lupus caused joint inflammation", "settings": "Bromelain alone; cited from earlier work"}},
  "note": "“Also recorded” adds a separate entry of the source.",
  "data": [
    {"compound": "O=c1c(O)c(-c2cc(O)c(O)c(O)c2)oc2cc(O)cc(O)c12", "note": "[Myricetin]", "values": [
      {"measurement": "Effectiveness of the flavonoid in the inventive formula (with Bromelain and Vitamin C)", "setting": "[1]", "result": "also effective; also recorded: somewhat effective"}
    ]},
    {"compound": "O=c1cc(-c2ccc(O)c(O)c2)oc2cc(O)cc(O)c12", "note": "[Luteolin]", "values": [
      {"measurement": "Effectiveness of the flavonoid in the inventive formula (with Bromelain and Vitamin C)", "setting": "[1]", "result": "also effective; also recorded: somewhat more effective than Quercetin"}
    ]},
    {"compound": "Bromelain", "values": [
      {"measurement": "Ameliorating joint pain", "setting": "[2]", "result": "not effective"}
    ]}
  ]
}
